“And” between values parts separate entries of the source, which are not always exact repeats. Equal values may be shown once. The source made the active and inactive calls. The calls are words filed in the database; no cut-off is given here.
How the values were obtained:
[1] = Apparent permeability in human Caco2 cells; format: ADME, cell-based, Caco-2
[2] = Apparent permeability in MDCK cells; format: ADME, cell-based, Canis lupus familiaris; settings: dog
[3] = molecular target: Voltage-gated inwardly rectifying potassium channel KCNH2 (Homo sapiens, UniProt Q12809); assay: Inhibition of human ERG
Sequence of Voltage-gated inwardly rectifying potassium channel KCNH2 (Q12809 whole entry): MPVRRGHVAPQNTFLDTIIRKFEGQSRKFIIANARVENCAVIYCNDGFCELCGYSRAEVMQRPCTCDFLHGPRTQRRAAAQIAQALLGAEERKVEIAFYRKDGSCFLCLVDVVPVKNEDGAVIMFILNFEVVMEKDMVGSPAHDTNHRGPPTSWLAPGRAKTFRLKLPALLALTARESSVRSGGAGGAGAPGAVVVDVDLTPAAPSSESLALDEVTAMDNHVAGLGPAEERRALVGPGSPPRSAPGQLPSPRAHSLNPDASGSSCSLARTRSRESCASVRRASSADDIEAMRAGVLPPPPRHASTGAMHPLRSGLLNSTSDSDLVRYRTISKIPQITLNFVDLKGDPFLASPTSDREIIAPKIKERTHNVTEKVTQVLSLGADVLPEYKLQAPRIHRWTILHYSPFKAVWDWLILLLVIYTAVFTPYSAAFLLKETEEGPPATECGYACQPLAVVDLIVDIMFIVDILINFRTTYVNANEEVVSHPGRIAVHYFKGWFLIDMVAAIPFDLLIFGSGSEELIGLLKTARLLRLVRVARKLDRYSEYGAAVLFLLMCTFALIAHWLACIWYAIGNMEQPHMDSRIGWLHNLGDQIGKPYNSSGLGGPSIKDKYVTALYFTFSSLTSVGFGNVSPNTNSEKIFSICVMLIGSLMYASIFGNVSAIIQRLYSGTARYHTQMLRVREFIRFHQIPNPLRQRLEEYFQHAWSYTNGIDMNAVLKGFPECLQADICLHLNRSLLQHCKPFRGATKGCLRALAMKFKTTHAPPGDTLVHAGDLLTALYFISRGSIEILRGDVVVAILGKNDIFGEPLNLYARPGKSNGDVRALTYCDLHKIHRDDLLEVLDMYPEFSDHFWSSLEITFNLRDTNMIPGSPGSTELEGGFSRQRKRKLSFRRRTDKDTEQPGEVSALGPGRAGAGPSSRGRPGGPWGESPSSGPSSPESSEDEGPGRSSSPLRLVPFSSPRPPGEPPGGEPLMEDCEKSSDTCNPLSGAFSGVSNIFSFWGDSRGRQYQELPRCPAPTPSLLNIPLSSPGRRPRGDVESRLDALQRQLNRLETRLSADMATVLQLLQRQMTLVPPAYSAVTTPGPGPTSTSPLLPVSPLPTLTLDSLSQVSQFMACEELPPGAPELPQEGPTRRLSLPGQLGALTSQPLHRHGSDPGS

[4] = molecular target: T1, Histone deacetylase 1/2/3/6 (Homo sapiens, UniProt Q13547+O15379+Q9UBN7+Q92769); assay: Inhibition of HDAC1/2/3/6 in human Cal27 cells assessed as potentiation of cisplatin-induced apoptosis at 250 to 500 nM preincubated for 48 hrs followed by cisplatin addition by flow cytomertry assay; format: cell-based
[5] = molecular target: T2, Histone deacetylase 1/2/3 (Homo sapiens) (UniProt Q13547+O15379+Q92769); assay: Inhibition of HDAC1/2/3 in human Cal27CisR cells assessed as increase in acetylation of histone H3 at 10 uM after 24 hrs by Western blot method; format: cell-based
[6] = test system: CAL-27; assay: Cytotoxicity against human CAL27 cells assessed as cell survival after 72 hrs by MTT assay; format: functional, cell-based; settings: CAL-27, 72 h
[7] = molecular target: T1, Histone deacetylase 1/2/3/6; assay: Inhibition of HDAC1/2/3/6 in human Cal27CisR cells using Boc-Lys(epsilon-Ac)-AMC as substrate preincubated for 18 hrs followed by substrate addition measured after 3 hrs by fluorescence assay; format: cell-based
[8] = molecular target: T3, Histone deacetylase 8 (Homo sapiens, UniProt Q9BY41); assay: Inhibition of human recombinant HDAC8 expressed in Escherichia coli using Z-L-Lys(epsilon-trifluoroacetyl)-AMC as substrate measured after 90 mins by fluorescence assay
T3 sequence (Q9BY41 whole entry): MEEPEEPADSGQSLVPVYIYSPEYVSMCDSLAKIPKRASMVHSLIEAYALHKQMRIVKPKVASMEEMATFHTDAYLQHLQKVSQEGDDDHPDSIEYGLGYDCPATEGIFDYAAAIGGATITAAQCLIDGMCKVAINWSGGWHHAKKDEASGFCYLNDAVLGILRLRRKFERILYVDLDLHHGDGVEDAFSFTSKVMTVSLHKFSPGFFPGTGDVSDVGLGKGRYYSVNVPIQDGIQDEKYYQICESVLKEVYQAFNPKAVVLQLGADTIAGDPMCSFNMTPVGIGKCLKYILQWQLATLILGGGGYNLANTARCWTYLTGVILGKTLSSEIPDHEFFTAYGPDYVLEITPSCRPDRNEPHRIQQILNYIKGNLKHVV

[9] = molecular target: T1, Histone deacetylase 1/2/3/6; assay: Inhibition of HDAC1/2/3/6 in human Cal27CisR cells assessed as potentiation of cisplatin-induced cytotoxicity preincubated for 48 hrs followed by cisplatin addition measured after 72 hrs by MTT assay relative to control; format: cell-based
[10] = molecular target: T4, Protein deacetylase HDAC6 (Homo sapiens, UniProt Q9UBN7); assay: Inhibition of N-terminal GST-tagged recombinant human HDAC6 expressed in baculovirus infected Sf9 insect cells using Z-(Ac)Lys-AMC as substrate measured after 90 mins by fluorescence assay
T4 sequence (Q9UBN7 whole entry): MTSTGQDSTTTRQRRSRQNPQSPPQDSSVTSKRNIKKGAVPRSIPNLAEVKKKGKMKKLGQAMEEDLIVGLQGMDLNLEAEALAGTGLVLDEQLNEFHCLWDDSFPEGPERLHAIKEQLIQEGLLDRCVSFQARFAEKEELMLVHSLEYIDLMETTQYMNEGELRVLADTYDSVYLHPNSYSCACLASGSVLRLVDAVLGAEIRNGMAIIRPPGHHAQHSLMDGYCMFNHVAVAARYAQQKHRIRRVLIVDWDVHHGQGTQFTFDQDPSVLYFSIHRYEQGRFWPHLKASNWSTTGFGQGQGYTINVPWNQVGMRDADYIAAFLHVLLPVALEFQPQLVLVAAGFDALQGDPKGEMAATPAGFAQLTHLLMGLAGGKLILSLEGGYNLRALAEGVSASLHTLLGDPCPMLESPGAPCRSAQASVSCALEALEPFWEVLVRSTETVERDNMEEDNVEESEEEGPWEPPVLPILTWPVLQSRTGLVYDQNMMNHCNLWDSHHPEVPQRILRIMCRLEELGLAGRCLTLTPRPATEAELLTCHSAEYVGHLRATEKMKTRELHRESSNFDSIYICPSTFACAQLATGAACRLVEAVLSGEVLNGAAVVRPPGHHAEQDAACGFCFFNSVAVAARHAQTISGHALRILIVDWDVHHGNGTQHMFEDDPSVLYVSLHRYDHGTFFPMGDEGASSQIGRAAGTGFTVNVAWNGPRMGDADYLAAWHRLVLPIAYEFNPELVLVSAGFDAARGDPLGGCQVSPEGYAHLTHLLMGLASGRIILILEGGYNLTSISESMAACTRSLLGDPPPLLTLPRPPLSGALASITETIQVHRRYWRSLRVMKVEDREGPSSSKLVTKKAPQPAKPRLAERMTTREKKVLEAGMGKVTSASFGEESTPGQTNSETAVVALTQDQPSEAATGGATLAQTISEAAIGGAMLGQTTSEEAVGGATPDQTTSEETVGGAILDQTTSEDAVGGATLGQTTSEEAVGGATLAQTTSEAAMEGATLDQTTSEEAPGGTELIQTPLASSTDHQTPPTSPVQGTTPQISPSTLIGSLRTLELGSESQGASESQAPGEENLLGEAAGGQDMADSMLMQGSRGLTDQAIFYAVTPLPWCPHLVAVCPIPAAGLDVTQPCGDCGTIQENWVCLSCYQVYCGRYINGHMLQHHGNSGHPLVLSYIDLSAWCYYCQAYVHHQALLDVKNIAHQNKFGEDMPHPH

[11] = Induction of apoptosis in human Cal27CisR cells at 250 to 500 nM incubated for 48 hrs by flow cytometry assay; format: cell-based; settings: 0.5 µM
[12] = molecular target: T5, Protein deacetylase HDAC6 (Homo sapiens) (UniProt Q9UBN7); assay: Inhibition of HDAC6 in human Cal27CisR cells assessed as increase in acetylation of alpha-tubulin at 10 uM after 24 hrs by Western blot method; format: cell-based
T5 sequence (whole entry): T4 sequence (Q9UBN7 whole entry)

[13] = molecular target: T5, Protein deacetylase HDAC6 (Homo sapiens); assay: Inhibition of HDAC6 in human Cal27 cells assessed as increase in acetylation of alpha-tubulin at 10 uM after 24 hrs by Western blot method; format: cell-based
[14] = molecular target: T1, Histone deacetylase 1/2/3/6; assay: Inhibition of HDAC1/2/3/6 in human CAL27 cells assessed as potentiation of cisplatin-induced cytotoxicity preincubated for 48 hrs followed by cisplatin addition measured after 72 hrs by MTT assay relative to control; format: cell-based
[15] = molecular target: Histone deacetylase 2 (Homo sapiens, UniProt Q92769); assay: Inhibition of full length human recombinant C-terminal FLAG-tagged HDAC2 expressed in baculovirus infected Sf9 insect cells using Boc-Lys(epsilon-Ac)-AMC as substrate measured after 90 mins by fluorescence assay; format: cell-based
Sequence of Histone deacetylase 2 (Q92769 whole entry): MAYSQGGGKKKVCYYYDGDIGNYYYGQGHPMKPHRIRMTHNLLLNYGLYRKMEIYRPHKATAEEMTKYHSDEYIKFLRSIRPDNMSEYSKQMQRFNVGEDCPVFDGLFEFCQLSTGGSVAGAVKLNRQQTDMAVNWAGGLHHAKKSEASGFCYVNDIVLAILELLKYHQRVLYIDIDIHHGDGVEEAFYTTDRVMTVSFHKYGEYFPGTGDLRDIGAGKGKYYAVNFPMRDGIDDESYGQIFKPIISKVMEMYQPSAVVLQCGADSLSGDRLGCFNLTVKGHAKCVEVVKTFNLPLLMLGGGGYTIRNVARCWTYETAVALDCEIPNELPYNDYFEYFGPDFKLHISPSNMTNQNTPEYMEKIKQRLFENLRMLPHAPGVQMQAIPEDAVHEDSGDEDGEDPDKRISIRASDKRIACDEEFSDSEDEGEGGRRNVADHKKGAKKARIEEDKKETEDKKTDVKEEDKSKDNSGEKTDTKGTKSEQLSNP

[16] = molecular target: T1, Histone deacetylase 1/2/3/6; assay: Inhibition of HDAC1/2/3/6 in human A2780 cells using Boc-Lys(epsilon-Ac)-AMC as substrate preincubated for 18 hrs followed by substrate addition measured after 3 hrs by fluorescence assay; format: cell-based
[17] = molecular target: T1, Histone deacetylase 1/2/3/6; assay: Inhibition of HDAC1/2/3/6 in human A2780cisR cells using Boc-Lys(epsilon-Ac)-AMC as substrate preincubated for 18 hrs followed by substrate addition measured after 3 hrs by fluorescence assay; format: cell-based
[18] = molecular target: T1, Histone deacetylase 1/2/3/6; assay: Inhibition of HDAC1/2/3/6 in human Cal27 cells using Boc-Lys(epsilon-Ac)-AMC as substrate preincubated for 18 hrs followed by substrate addition measured after 3 hrs by fluorescence assay; format: cell-based
[19] = molecular target: T2, Histone deacetylase 1/2/3 (Homo sapiens); assay: Inhibition of HDAC1/2/3 in human Cal27 cells assessed as increase in acetylation of histone H3 at 10 uM after 24 hrs by Western blot method; format: cell-based
[20] = molecular target: Histone deacetylase 1 (Homo sapiens, UniProt Q13547); assay: Inhibition of C-terminal FLAG/His-tagged recombinant human HDAC1 expressed in baculovirus infected Sf9 insect cells using Z-(Ac)Lys-AMC as substrate measured after 90 mins by fluorescence assay
Sequence of Histone deacetylase 1 (Q13547 whole entry): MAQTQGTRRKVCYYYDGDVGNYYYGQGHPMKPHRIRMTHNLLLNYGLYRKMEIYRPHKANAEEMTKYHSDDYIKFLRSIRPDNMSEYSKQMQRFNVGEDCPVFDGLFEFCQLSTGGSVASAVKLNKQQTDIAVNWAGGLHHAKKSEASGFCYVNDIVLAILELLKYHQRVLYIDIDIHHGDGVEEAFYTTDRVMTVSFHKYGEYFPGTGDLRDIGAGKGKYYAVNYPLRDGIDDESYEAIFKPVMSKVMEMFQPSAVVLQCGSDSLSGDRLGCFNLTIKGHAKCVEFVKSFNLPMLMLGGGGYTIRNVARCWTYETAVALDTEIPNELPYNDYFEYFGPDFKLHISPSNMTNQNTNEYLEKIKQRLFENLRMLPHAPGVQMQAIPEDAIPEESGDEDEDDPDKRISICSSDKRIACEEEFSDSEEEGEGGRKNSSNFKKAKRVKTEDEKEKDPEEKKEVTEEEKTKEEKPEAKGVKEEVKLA

[21] = Cytotoxicity against human Cal27CisR cells assessed as cell survival after 72 hrs by MTT assay; format: functional, cell-based
[22] = molecular target: Histone deacetylase 3/Nuclear receptor corepressor 2 (HDAC3/NCoR2) (Homo sapiens, UniProt O15379); assay: Inhibition of full length human recombinant C-terminal His-tagged HDAC3/NcoR2 expressed in baculovirus infected Sf9 insect cells using Boc-Lys(epsilon-Ac)-AMC as substrate measured after 90 mins by fluorescence assay
Sequence of Histone deacetylase 3/Nuclear receptor corepressor 2 (HDAC3/NCoR2) (O15379 whole entry): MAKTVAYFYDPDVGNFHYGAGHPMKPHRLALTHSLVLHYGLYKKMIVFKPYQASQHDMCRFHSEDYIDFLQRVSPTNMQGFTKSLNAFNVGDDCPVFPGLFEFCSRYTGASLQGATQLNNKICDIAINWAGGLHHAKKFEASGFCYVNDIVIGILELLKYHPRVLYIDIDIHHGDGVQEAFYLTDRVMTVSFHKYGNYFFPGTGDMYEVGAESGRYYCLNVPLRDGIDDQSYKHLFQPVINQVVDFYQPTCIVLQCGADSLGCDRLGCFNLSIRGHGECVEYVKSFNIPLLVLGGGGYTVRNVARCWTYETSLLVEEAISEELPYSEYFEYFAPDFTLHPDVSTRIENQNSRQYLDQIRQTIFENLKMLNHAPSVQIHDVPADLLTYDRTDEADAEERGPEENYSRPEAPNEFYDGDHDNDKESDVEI
Sequence of Histone deacetylase 3/Nuclear receptor corepressor 2 (HDAC3/NCoR2) (Q9Y618 whole entry, further chain): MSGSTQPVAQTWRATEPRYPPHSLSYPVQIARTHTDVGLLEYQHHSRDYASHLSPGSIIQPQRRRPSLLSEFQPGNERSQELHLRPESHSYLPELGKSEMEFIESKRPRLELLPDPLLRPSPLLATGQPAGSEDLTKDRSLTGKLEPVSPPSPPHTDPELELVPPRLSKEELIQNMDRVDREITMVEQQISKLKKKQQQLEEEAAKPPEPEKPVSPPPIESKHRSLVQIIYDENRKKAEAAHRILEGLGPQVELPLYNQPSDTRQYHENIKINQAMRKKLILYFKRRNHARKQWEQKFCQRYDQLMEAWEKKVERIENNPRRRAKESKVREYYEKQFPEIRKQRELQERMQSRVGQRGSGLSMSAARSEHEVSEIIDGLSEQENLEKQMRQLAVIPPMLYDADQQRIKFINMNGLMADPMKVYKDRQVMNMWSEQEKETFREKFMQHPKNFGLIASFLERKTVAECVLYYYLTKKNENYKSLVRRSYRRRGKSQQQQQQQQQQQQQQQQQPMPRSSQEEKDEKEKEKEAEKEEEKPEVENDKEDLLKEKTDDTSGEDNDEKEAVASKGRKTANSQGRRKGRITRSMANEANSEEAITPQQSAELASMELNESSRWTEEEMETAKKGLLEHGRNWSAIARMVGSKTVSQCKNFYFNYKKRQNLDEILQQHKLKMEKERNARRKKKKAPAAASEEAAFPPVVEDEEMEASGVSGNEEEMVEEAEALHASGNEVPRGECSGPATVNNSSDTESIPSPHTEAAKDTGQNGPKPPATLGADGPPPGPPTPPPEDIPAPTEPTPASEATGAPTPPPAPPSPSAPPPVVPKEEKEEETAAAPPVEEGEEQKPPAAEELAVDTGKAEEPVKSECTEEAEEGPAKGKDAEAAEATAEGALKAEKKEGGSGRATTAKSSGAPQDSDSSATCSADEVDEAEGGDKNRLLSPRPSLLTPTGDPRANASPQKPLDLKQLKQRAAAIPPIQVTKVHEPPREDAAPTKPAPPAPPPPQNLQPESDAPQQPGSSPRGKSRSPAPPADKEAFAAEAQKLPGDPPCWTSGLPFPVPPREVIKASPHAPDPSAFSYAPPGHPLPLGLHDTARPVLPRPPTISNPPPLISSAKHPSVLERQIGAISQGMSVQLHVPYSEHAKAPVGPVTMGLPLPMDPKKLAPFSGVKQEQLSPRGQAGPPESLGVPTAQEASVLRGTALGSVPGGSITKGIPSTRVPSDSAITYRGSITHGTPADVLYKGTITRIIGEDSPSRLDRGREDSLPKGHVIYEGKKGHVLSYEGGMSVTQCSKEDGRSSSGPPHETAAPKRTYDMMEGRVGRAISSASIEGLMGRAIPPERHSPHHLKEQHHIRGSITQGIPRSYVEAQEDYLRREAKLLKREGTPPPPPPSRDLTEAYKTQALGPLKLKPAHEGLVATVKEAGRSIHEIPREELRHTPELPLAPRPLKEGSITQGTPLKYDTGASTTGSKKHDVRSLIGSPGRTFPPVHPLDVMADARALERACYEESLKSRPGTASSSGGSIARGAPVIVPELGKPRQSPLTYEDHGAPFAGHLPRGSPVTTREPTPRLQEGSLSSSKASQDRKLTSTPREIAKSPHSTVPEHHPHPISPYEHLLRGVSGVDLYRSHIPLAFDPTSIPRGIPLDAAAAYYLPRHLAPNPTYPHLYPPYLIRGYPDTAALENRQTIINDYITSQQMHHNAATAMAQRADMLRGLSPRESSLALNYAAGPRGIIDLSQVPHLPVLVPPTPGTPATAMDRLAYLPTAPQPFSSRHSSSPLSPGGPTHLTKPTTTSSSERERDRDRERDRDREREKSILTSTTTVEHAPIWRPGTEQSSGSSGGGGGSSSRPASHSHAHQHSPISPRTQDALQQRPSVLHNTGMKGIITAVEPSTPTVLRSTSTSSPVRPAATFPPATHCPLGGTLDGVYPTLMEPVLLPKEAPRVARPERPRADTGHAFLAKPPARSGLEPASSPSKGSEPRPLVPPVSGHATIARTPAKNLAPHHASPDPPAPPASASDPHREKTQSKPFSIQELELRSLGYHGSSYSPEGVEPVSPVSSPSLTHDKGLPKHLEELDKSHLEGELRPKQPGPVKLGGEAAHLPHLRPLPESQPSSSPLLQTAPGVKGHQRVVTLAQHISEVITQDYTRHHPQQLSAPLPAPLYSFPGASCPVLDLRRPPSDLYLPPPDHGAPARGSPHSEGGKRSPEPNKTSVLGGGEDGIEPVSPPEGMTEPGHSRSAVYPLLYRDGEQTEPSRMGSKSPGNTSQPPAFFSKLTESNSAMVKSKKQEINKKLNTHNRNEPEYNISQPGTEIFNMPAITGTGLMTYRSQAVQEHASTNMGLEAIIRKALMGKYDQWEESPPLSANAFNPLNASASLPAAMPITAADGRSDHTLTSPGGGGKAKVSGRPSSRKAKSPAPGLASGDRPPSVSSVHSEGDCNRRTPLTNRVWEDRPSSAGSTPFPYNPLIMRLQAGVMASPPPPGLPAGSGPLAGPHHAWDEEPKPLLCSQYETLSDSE

[23] = test system: A2780cisR; assay: Cytotoxicity against human A2780cisR cells assessed as cell survival after 72 hrs by MTT assay; format: functional, cell-based
[24] = test system: A2780; assay: Cytotoxicity against human A2780 cells assessed as cell survival after 72 hrs by MTT assay; format: functional, cell-based; settings: A2780, 72 h
[25] = molecular target: T1, Histone deacetylase 1/2/3/6; assay: Inhibition of HDAC1/2/3/6 in human Cal27CisR cells assessed as potentiation of cisplatin-induced apoptosis at 250 to 500 nM preincubated for 48 hrs followed by cisplatin addition by flow cytomertry assay; format: cell-based
[26] = test system: CAL-27; assay: Induction of apoptosis in human CAL27 cells at 250 to 500 nM incubated for 48 hrs by flow cytometry assay; format: cell-based; settings: cal-27, 48 h, 0.5 µM

SMILES	Papp ([1]; Caco-2, read-out: Papp) [nm/s]	Papp ([1]; caco-2)	Papp ([2]; MDCK, read-out: Papp) [nm/s]	Papp ([2]; mdck) [nm/s]	IC50 [3]	IC50 [6] [µM]	IC50 [7] [µM]	IC50 [8] [µM]	IC50 [10] [µM]	IC50 [15] [µM]	IC50 [16] [µM]	IC50 [17] [µM]	IC50 [18] [µM]	IC50 [20] [µM]	IC50 [21] [µM]	IC50 [22] [µM]	IC50 [23] [µM]	IC50 [24] [µM]	also measured
CN(C)c1ccc(C(=O)N(CC(=O)NC2CCCCC2)Cc2ccc(C(=O)NO)cc2)cc1	98	101 nm/s	66	58	21.5 µM and 52.1 µM														
CN(C)c1ccc(C(=O)N(CCCCCC(=O)NO)CC(=O)NCc2ccccc2)cc1		82 nm/s and 200 nm/s	73	106		0.44	0.35	2.75	0.281	0.066	0.48	0.32	0.27	0.025	1.13	0.0065	1.62	0.47	inhibition [4]: Active; inhibition [5]: Active; inhibition [9]: Dose-dependent effect; Activity [11]: Non-Toxic; inhibition [12]: Active; inhibition [13]: Active; inhibition [14]: Dose-dependent effect; inhibition [19]: Active; inhibition [25]: Active; Activity [26]: Non-Toxic
O=C(CCCCCN1C(=O)c2ccccc2N(Cc2ccccc2)C(=O)[C@@H]1Cc1ccccc1)NO	144		109		2.23 µM														
Cc1cc(C)cc(C(=O)N(CCCCCC(=O)NO)CC(=O)NC2CCCCC2)c1						1.13	0.64	7.4	0.214	0.084	0.88	0.93	0.71	0.0274	1.14	0.06	3.81	0.16	
Cc1cc(C)cc(C(=O)N(CCCCCC(=O)NO)CC(=O)NCc2ccccc2)c1						0.7	0.41	7.33	0.135	0.061	0.63	0.35	0.37	0.0247	1.41	0.026	1.85	0.33	
Cc1ccc(NC(=O)CN(CCCCCC(=O)NO)C(=O)c2ccc(N(C)C)cc2)cc1						0.53	0.49	6.76	0.106	0.146	0.66	0.68	0.37	0.0964	0.6	0.016	1.61	0.4	

Source: ChEMBL document CHEMBL4014348, “Design, Multicomponent Synthesis, and Anticancer Activity of a Focused Histone Deacetylase (HDAC) Inhibitor Library with Peptoid-Based Cap Groups” (J Med Chem, 2017)
